Results on four molecules are retold here after ChEMBL document CHEMBL1208738, “Optimization of privileged structures for selective and potent melanocortin subtype-4 receptor ligands” (Bioorg Med Chem Lett, 2010).

T2 sequence (P32245 whole entry): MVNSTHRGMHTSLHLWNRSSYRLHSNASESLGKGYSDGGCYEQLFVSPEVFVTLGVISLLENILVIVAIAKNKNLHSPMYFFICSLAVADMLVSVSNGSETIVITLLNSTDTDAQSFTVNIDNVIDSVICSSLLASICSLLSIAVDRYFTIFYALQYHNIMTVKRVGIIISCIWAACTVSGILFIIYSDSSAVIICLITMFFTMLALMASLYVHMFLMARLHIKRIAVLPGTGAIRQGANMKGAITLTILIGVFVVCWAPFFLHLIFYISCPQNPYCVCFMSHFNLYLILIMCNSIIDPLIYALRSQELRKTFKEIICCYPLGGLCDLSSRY

One data set deals with T1, Melanocyte-stimulating hormone receptor (Homo sapiens, UniProt Q01726). Put plainly: Displacement of [125I]NDP-alpha-MSH from human MC1 receptor expressed in CHO cells. Format: cell-based.
T1 sequence (Q01726 whole entry): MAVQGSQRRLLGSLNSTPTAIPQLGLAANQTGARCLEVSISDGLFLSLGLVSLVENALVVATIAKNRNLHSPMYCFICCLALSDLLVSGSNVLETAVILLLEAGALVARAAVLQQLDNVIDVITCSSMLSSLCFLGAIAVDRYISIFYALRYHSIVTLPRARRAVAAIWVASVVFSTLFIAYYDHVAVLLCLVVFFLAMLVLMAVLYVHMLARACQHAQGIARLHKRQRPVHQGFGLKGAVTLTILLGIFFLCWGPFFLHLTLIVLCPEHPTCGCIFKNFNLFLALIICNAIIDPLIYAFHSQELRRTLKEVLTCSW
Conditions: not given
Background: Displacement assays read how much labelled ligand stays bound in the presence of the test substance.
Regarding `CC(C)N(CC(C1CCCCC1)N1CCN(C(=O)[C@@H]2CN(C(C)(C)C)C[C@H]2c2ccc(F)cc2F)CC1)C(=O)c1cccnn1` (single isomer, unassigned; diastereomer 1), the IC50 worked out at 1900 nM. In other words, the single-digit micromolar range.
`CC(=O)N(CC(C1CCCCC1)N1CCN(C(=O)[C@@H]2CN(C(C)(C)C)C[C@H]2c2ccc(F)cc2F)CC1)C(C)C` (stereo in doubt; 19B) gave an IC50 of 1800 nM.

A further data set concerns the target T2, Melanocortin receptor 4 (Homo sapiens, UniProt P32245). Description: Agonist activity at human MC4 receptor expressed in CHO cells assessed as increase of alpha-MSH-induced cAMP accumulation at 10 uM relative to alpha-MSH. The data set is classed as functional, cell-based.
Conditions: not given
Take `CCN(CC)CC(C1CCCCC1)N1CCN(C(=O)[C@@H]2CN(C(C)(C)C)C[C@H]2c2ccc(F)cc2F)CC1` (stereo partly drawn): the Activity is 101%.

Tested on in the next data set: not listed separately
Description: Clearance in Sprague-Dawley rat at 1 mg/kg, iv and 4 mg/kg, po. Format: ADME, organism-based. The note with it: in vivo.
Turning to `CCN(CC)CC(C1CCCCC1)N1CCN(C(=O)[C@@H]2CN(C(C)(C)C)C[C@H]2c2ccc(F)cc2F)CC1` (stereo partly drawn), the clearance amounted to 7.3 mL/min/kg.
In turn, `CC(C)N(CC(C1CCCCC1)N1CCN(C(=O)[C@@H]2CN(C(C)(C)C)C[C@H]2c2ccc(F)cc2F)CC1)C(=O)c1ncccn1` (single isomer, unassigned; diastereomer 1) gave a clearance of 31 mL/min/kg.
Take `CC(=O)N(CC(C1CCCCC1)N1CCN(C(=O)[C@@H]2CN(C(C)(C)C)C[C@H]2c2ccc(F)cc2F)CC1)C(C)C` (stereo in doubt; 19B): the clearance amounted to 42 mL/min/kg.

Tested on in a further data set: not listed separately
Description: Oral bioavailability in Sprague-Dawley rat at 4 mg/kg. Format: ADME, organism-based. The conditions noted are these: in vivo.
`CCN(CC)CC(C1CCCCC1)N1CCN(C(=O)[C@@H]2CN(C(C)(C)C)C[C@H]2c2ccc(F)cc2F)CC1` (stereo partly drawn) had a bioavailability of 22%.
For the molecule `CC(C)N(CC(C1CCCCC1)N1CCN(C(=O)[C@@H]2CN(C(C)(C)C)C[C@H]2c2ccc(F)cc2F)CC1)C(=O)c1ncccn1` (single isomer, unassigned; diastereomer 1), the bioavailability worked out at 26%.
Take `CC(=O)N(CC(C1CCCCC1)N1CCN(C(=O)[C@@H]2CN(C(C)(C)C)C[C@H]2c2ccc(F)cc2F)CC1)C(C)C` (stereo in doubt; 19B): the bioavailability turned out to be 12%.

Tested on in a further data set: not listed separately
Put plainly: Half life in Sprague-Dawley rat at 1 mg/kg, iv and 4 mg/kg, po. The data set is classed as ADME, organism-based. The note with it: in vivo.
On to `CCN(CC)CC(C1CCCCC1)N1CCN(C(=O)[C@@H]2CN(C(C)(C)C)C[C@H]2c2ccc(F)cc2F)CC1` (stereo partly drawn), for which the half-life was 34 h.
As for `CC(C)N(CC(C1CCCCC1)N1CCN(C(=O)[C@@H]2CN(C(C)(C)C)C[C@H]2c2ccc(F)cc2F)CC1)C(=O)c1ncccn1` (single isomer, unassigned; diastereomer 1), the half-life was 1.8 h.
`CC(=O)N(CC(C1CCCCC1)N1CCN(C(=O)[C@@H]2CN(C(C)(C)C)C[C@H]2c2ccc(F)cc2F)CC1)C(C)C` (stereo in doubt; 19B) showed a half-life of 2.2 h.

A further data set has as its target T2, Melanocortin receptor 4. Description: Agonist activity at human MC4 receptor expressed in CHO cells assessed as increase of alpha-MSH-induced cAMP accumulation. The data set is classed as functional, cell-based.
Conditions: not given
In general terms: cAMP levels reflect the balance of adenylyl cyclase and phosphodiesterase activity.
With `CCN(CC)CC(C1CCCCC1)N1CCN(C(=O)[C@@H]2CN(C(C)(C)C)C[C@H]2c2ccc(F)cc2F)CC1` (stereo partly drawn), the EC50 was 570 nM.
As to `CC(C)N(CC(C1CCCCC1)N1CCN(C(=O)[C@@H]2CN(C(C)(C)C)C[C@H]2c2ccc(F)cc2F)CC1)C(=O)c1ncccn1` (single isomer, unassigned; diastereomer 1), the EC50 came out at 10 nM.
With `CC(C)N(CC(C1CCCCC1)N1CCN(C(=O)[C@@H]2CN(C(C)(C)C)C[C@H]2c2ccc(F)cc2F)CC1)C(=O)c1cccnn1` (single isomer, unassigned; diastereomer 1), the EC50 was determined as 5.4 nM.
`CC(=O)N(CC(C1CCCCC1)N1CCN(C(=O)[C@@H]2CN(C(C)(C)C)C[C@H]2c2ccc(F)cc2F)CC1)C(C)C` (stereo in doubt; 19B): the EC50 came out at 25 nM.

Another data set concerns the target T1, Melanocyte-stimulating hormone receptor. Description: Agonist activity at human MC1 receptor expressed in CHO cells assessed as increase of alpha-MSH-induced cAMP accumulation. Format: functional, cell-based.
Conditions: not given
For `CC(C)N(CC(C1CCCCC1)N1CCN(C(=O)[C@@H]2CN(C(C)(C)C)C[C@H]2c2ccc(F)cc2F)CC1)C(=O)c1cccnn1` (single isomer, unassigned; diastereomer 1), the EC50 was 1200 nM.
Same read-out and setting: under `CC(=O)N(CC(C1CCCCC1)N1CCN(C(=O)[C@@H]2CN(C(C)(C)C)C[C@H]2c2ccc(F)cc2F)CC1)C(C)C` (stereo in doubt; 19B) stands 890 nM.

Another data set deals with T3, Melanocortin receptor 3 (Homo sapiens, UniProt P41968). Description: Agonist activity at human MC3 receptor expressed in CHO cells assessed as increase of alpha-MSH-induced cAMP accumulation. Format: functional, cell-based.
T3 sequence (P41968 whole entry): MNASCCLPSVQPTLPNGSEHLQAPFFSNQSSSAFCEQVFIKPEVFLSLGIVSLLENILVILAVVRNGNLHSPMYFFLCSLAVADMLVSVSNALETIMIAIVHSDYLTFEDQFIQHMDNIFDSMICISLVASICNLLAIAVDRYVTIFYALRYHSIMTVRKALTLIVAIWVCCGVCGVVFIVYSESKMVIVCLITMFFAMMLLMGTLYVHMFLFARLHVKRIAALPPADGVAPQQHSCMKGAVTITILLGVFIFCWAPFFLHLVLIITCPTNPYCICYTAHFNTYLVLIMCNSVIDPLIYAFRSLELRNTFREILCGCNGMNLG
Conditions: not given
For the molecule `CC(C)N(CC(C1CCCCC1)N1CCN(C(=O)[C@@H]2CN(C(C)(C)C)C[C@H]2c2ccc(F)cc2F)CC1)C(=O)c1cccnn1` (single isomer, unassigned; diastereomer 1), the EC50 amounted to 90 nM.
For `CC(=O)N(CC(C1CCCCC1)N1CCN(C(=O)[C@@H]2CN(C(C)(C)C)C[C@H]2c2ccc(F)cc2F)CC1)C(C)C` (stereo in doubt; 19B), the EC50 came out at 2000 nM.

The target of the next data set is T2, Melanocortin receptor 4. Description: Displacement of [125I]NDP-alpha-MSH from human MC4 receptor expressed in CHO cells. Format: cell-based.
Conditions: not given
The molecule `CCN(CC)CC(C1CCCCC1)N1CCN(C(=O)[C@@H]2CN(C(C)(C)C)C[C@H]2c2ccc(F)cc2F)CC1` (stereo partly drawn) came in with an IC50 of 260 nM.
Take `CC(C)N(CC(C1CCCCC1)N1CCN(C(=O)[C@@H]2CN(C(C)(C)C)C[C@H]2c2ccc(F)cc2F)CC1)C(=O)c1ncccn1` (single isomer, unassigned; diastereomer 1): the IC50 is 35 nM.
`CC(C)N(CC(C1CCCCC1)N1CCN(C(=O)[C@@H]2CN(C(C)(C)C)C[C@H]2c2ccc(F)cc2F)CC1)C(=O)c1cccnn1` (single isomer, unassigned; diastereomer 1) gave an IC50 of 18 nM.
The same measure, in the same setting: under `CC(=O)N(CC(C1CCCCC1)N1CCN(C(=O)[C@@H]2CN(C(C)(C)C)C[C@H]2c2ccc(F)cc2F)CC1)C(C)C` (stereo in doubt; 19B) stands 28 nM.

The target in the next data set is T4, Melanocortin receptor 5 (Homo sapiens, UniProt P33032). Put plainly: Agonist activity at human MC5 receptor expressed in CHO cells assessed as increase of alpha-MSH-induced cAMP accumulation. Format: functional, cell-based.
T4 sequence (P33032 whole entry): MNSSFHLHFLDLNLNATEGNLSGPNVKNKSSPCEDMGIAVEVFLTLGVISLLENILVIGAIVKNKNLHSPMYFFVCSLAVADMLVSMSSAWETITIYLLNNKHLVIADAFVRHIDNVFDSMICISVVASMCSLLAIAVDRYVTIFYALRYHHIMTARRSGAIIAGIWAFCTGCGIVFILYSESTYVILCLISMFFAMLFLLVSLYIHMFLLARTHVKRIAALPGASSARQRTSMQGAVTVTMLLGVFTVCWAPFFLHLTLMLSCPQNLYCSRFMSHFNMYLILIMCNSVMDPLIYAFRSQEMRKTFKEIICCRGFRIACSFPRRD
Conditions: not given
Regarding `CC(C)N(CC(C1CCCCC1)N1CCN(C(=O)[C@@H]2CN(C(C)(C)C)C[C@H]2c2ccc(F)cc2F)CC1)C(=O)c1cccnn1` (single isomer, unassigned; diastereomer 1), the EC50 is 490 nM.
In the case of `CC(=O)N(CC(C1CCCCC1)N1CCN(C(=O)[C@@H]2CN(C(C)(C)C)C[C@H]2c2ccc(F)cc2F)CC1)C(C)C` (stereo in doubt; 19B), the EC50 came out at 2800 nM.

Tested on in the next data set: not listed separately
Put plainly: Volume of distribution at steady state in Sprague-Dawley rat at 1 mg/kg, iv and 4 mg/kg, po. Format: ADME, organism-based. The note with it: in vivo, read-out: Vdss.
With `CCN(CC)CC(C1CCCCC1)N1CCN(C(=O)[C@@H]2CN(C(C)(C)C)C[C@H]2c2ccc(F)cc2F)CC1` (stereo partly drawn), the Vd stood at 19 L/kg.
For the molecule `CC(C)N(CC(C1CCCCC1)N1CCN(C(=O)[C@@H]2CN(C(C)(C)C)C[C@H]2c2ccc(F)cc2F)CC1)C(=O)c1ncccn1` (single isomer, unassigned; diastereomer 1), the Vd turned out to be 3.8 L/kg.
On to `CC(=O)N(CC(C1CCCCC1)N1CCN(C(=O)[C@@H]2CN(C(C)(C)C)C[C@H]2c2ccc(F)cc2F)CC1)C(C)C` (stereo in doubt; 19B), for which the Vd worked out at 6.8 L/kg.

Another data set deals with T3, Melanocortin receptor 3. Put plainly: Displacement of [125I]NDP-alpha-MSH from human MC3 receptor expressed in CHO cells. The data set is classed as cell-based.
Conditions: not given
Regarding `CC(C)N(CC(C1CCCCC1)N1CCN(C(=O)[C@@H]2CN(C(C)(C)C)C[C@H]2c2ccc(F)cc2F)CC1)C(=O)c1cccnn1` (single isomer, unassigned; diastereomer 1), the concentration for half-maximal inhibition (IC50) was 770 nM. That is a sub-micromolar value.
Turning to `CC(=O)N(CC(C1CCCCC1)N1CCN(C(=O)[C@@H]2CN(C(C)(C)C)C[C@H]2c2ccc(F)cc2F)CC1)C(C)C` (stereo in doubt; 19B), the half-inhibitory concentration (IC50) worked out at 6500 nM.

The target in another data set is T4, Melanocortin receptor 5. Description: Displacement of [125I]NDP-alpha-MSH from human MC5 receptor expressed in CHO cells.
Conditions: not given
Format: cell-based.
As for `CC(C)N(CC(C1CCCCC1)N1CCN(C(=O)[C@@H]2CN(C(C)(C)C)C[C@H]2c2ccc(F)cc2F)CC1)C(=O)c1cccnn1` (single isomer, unassigned; diastereomer 1), the IC50 was 130 nM.
For `CC(=O)N(CC(C1CCCCC1)N1CCN(C(=O)[C@@H]2CN(C(C)(C)C)C[C@H]2c2ccc(F)cc2F)CC1)C(C)C` (stereo in doubt; 19B), the IC50 worked out at 660 nM.

Usually IC50 stands for the concentration at which inhibition is half-maximal. Read a high IC50 as weaker potency in that assay. Broadly, the bioavailability is the share of a dose that reaches the circulation, judged against a reference dose that is usually intravenous. A lower bioavailability goes with poor availability. A word on the half-life: it is the time in which the quantity being followed falls by half. For orientation: EC50 means the midpoint of the concentration-response curve.
